Read-outs that look alike come from different tables or passages of the source. Ends that are not written are not given here.
What was measured:
MBP-NS34a [1] = target: T1, MBP-NS34a (Hepatitis C virus genotype 1b, UniProt P26662); test: Phage ELISA: inhibition of binding of phage peptide and MBP-NS34a by NS4a peptide 4A18-40; parameters: species or system human hepatitis C virus; conditions: 4A18-40 peptide in 10-fold and 20-fold molar excess (FIG. 2)
T1 construct: (including 979th to 1710th amino acids); made in house; host or cells: Escherichia coli XL2-Blue
Excerpt: A possibility that an action site of each phage peptide clone obtained as described above and that of the NS4a peptide derived from virus known to be activated by the binding to the NS3 protein were identical or overlapped was examined. A partial peptide of the NS4a peptide composed of the 18th to 40th residues from the amino terminus (referred to as 4A18-40 peptide) is known as a minimal region required to enhance the NS3 protease activity (Tanji et al., J. Virol., 69, 4017-4026, 1995). Accordingly, an influence on the binding of each phage peptide and the MBP-NS34a protein was analyzed by the phage ELISA method using a chemically synthesized 4A18-40 peptide ([…], SEQ ID NO; 19). 10 μg/ml of the MBP-NS34a protein to which the 4A18-40 peptide was added in an amount of 10 or 20 times in excess in a molar ratio was immobilized on each well of a 96-well microtiter plate. The plate was blocked by using 100 μl of 0.5% BSA solution prepared with 10 mM NaHCO3, and rinsed once with 200 μl of TBS buffer. […]
Each well was washed with 200 μl of TBS containing 0.5% Tween 20 five times. […] The optical density at 405 nm was measured by a 96-well plate reader (BIO-RAD). The optical density due to binding of the MBP-NS34a and the phage peptide observed in the presence of the NS4a peptide was measured.

NS3 protease (MBP-NS34a) = target: T2, NS3 protease (MBP-NS34a) (Hepatitis C virus genotype 1b, UniProt P26662); test: NS3 protease inhibitory activity test using substrate cleavage reaction as index; assay type: biochemical, human hepatitis C virus
T2 construct: (including 979th to 1710th amino acids); made in house; host or cells: Escherichia coli XL2-Blue
Method: An NS3 protease cleavage sequence between NS5a and NS5b in the HCV polypeptide was synthesized. The protease inhibitory ability of each of the synthetic peptides was examined according to the method of Kakiuchi et al., in which a synthetic substrate having an amino terminus labeled with a dansyl group was reacted in the presence of a protease and a cleavage degree is measured by reverse phase HPLC (Biochem. Diophys. Res. Commun., 210, 1059, 1995). 1 μg of the purified MBP-NS34a and a reaction mixture (50 mM Tris-HCl (pH 7.5), 30 mM NaCl, 5 MM MgCl2 and 10 mM DTT) containing an evaluation sample prepared at an appropriate concentration were incubated at 25° C. for 15 minutes. To the solution, the synthesized substrate was added at a final concentration of 50 μM, and the mixture was allowed to react at 37° C. for 1 to 3 hours. Subsequently, the enzymatic reaction was stopped by adding a reaction-stopping solution (20% acetonitrile, 0.1% TFA) in a volume 9 times as much as the reaction volume. Then, the cleavaged peak of the synthesized substrate was detected (excited at 340 nm and measured at 510 nm) by a reverse phase column (YMC-AM-302) to calculate the cleavage rate when the inhibitor was added. Further, a value obtained by dividing this cleavage rate when the inhibitor was added by the cleavage rate when no inhibitor was added, was subtracted from 1 and then multiplied by 100. The obtained value was used as the inhibition rate (%) of the evaluated drug. In the above method, the peptide concentration inhibiting 50% of the protease activity (IC50) was calculated (Table 2).

MBP-NS34a [2] = target: T1, MBP-NS34a; test: Phage ELISA: inhibition of binding of phage peptide and MBP-NS34a by library compounds; parameters: species or system human hepatitis C virus; conditions: for effect on binding of various phages to NS34a (figure legend): FIG. 3: clones other than phage peptide K13, FIG. 4: any clone; for inhibition of the binding of the MBP-NS34a and the phage peptide: compound serially diluted, OD 405 nm (FIG. 3, FIG. 4)
Method: A binding inhibitor was screened by using the above phage ELISA system. As peptides used for screening, the phage peptides whose protease inhibitory activity was confirmed by using the synthetic peptides were prepared in an amount required for screening according to the method of Example 2 <3>. Each well of a 96-well microtiter plate was coated by using 50 μl of the MBP-NS34a protein solution prepared at 10 μg/ml. The plate was blocked by using 100 μl of 0.5% BSA solution prepared with 10 mM NaHCO3 and rinsed once with 200 μl of TBS buffer for each well. A mixed solution of a compound in a chemical library (synthesized in our company) diluted to an appropriate concentration and each phage prepared as described above was prepared, and the mixture was added to each well coated with the MBP-NS34a protein in an amount of 100 μl and incubated overnight at 4° C. Each well was washed with 200 μl of TBS buffer four times. Then, 50 μl of horseradish peroxidase (HRP)-conjugated sheep anti-M13 phage diluted 2000 times with 5% skim milk was introduced into each well and incubated at room temperature for 1 hour.
Each well was washed with 200 μl of TBS containing 0.5% Tween-20, five times. Then, 100 μl of ABTS solution was added thereto and further incubated at room temperature. The optical density at 405 nm was measured by using a 96-well plate reader (BIO-RAD). There was selected Compound HCP1271 (Compound 5 described in Japanese Patent Laid-Open (KOKAI) No. 2000-7645), in the presence of which the optical density by binding of the MBP-NS34a and the phage peptide was lower than the optical density observed in the absence of the compound. Further, this inhibitory compound was serially diluted and its influence on the binding of 5 kinds of other phage peptides, which inhibited the NS3 protease activity, was similarly determined by the phage ELISA method. […] Further, since a compound HCP1231 similar to HCP1271, was retrieved by the search of the chemical library, its NS3 protease activity inhibitory ability and influence on the binding of the phage peptide and the NS3 protease were examined. […] That is, it was shown that the compound obtained from screening of the inhibitor for binding of the phage peptide and the protease protein could inhibit the protease activity very well.

T1 sequence (P26662 979-1710): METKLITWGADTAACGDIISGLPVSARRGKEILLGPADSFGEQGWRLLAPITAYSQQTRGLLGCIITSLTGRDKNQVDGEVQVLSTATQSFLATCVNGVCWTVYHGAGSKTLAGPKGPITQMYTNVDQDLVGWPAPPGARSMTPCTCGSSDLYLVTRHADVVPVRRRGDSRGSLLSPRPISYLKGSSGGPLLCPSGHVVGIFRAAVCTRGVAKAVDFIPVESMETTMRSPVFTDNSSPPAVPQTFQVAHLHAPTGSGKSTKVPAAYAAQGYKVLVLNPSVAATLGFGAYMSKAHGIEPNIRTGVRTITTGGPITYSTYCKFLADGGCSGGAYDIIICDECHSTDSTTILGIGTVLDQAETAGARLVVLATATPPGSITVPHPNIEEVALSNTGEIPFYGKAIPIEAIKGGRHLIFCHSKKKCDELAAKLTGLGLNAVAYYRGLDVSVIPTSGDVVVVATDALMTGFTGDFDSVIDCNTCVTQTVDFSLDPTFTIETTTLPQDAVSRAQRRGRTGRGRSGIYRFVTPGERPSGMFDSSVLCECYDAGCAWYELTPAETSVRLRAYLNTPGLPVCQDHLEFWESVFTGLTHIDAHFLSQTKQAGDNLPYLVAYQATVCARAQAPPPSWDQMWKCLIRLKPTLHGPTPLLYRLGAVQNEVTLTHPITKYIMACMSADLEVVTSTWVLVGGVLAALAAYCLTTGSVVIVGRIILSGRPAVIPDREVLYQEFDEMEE
T2 sequence (P26662 979-1710): as above

| Molecule | effect on binding of various phages to NS34a (figure legend) (MBP-NS34a [2]) | inhibition of the binding of the MBP-NS34a and the phage peptide (MBP-NS34a [2]) | IC50 (NS3 protease (MBP-NS34a)) [µM] | other results |
| --- | --- | --- | --- | --- |
| LTTGSVVIVGRIILSGRPAVVPD [4A18-40 peptide] |  |  |  | inhibition of binding of phage clone K13 to the MBP-NS34a protein (MBP-NS34a [1]): increasingly inhibited; inhibition of binding of phage clone K13 to the MBP-NS34a protein (MBP-NS34a [1]; listed as NS4a peptide): inhibited the binding in a concentration-dependent manner |
| CCCCCCNC(=O)c1cc(Cl)ccc1NS(=O)(=O)c1ccc(Cl)cc1 [HCP1231] | Binding of any clone was not inhibited | scarcely inhibited the binding |  | NS3 protease activity inhibitory ability (in words) (NS3 protease (MBP-NS34a)): very weak protease activity inhibitory activity |
| O=C(Nc1ccc(Oc2c(Cl)cc(Cl)cc2Cl)cc1)c1cc(Cl)ccc1NS(=O)(=O)c1ccc2ccccc2c1 [HCP1271] | inhibited in a concentration-dependent manner | concentration-dependently inhibited the binding |  | IC50 (NS3 protease (MBP-NS34a); method of Example 3 <1>, read-out: NS3 protease activity IC50 value): 2.2 µM |
| WVFFWLSRP [Clone J95, WVFFWLSRP] |  |  | 15 |  |
| IWHFSFMWI [Clone K1, IWHFSFMWI] |  |  | 15 |  |

Source: patent publication US20050266498A1, “Method for screening biomolecule activity regulator” (priority 1999, published 2005)
